Laboratory results as given in PubChem BioAssay AID1259407 (Chemical Carcinogenesis Research Information System (CCRIS), 2018).
Active and inactive are the calls of the source. No rule for the calls is given here.

Tested on: CCRIS mutagenicity, Ames/micronucleus/aberration tests
Assay: CCRIS mutagenicity studies
[1] = Test System: AMES SALMONELLA TYPHIMURIUM, Strain/Indicator: TA97, Metabolic Activation: HAMSTER, LIVER, S-9, AROCLOR 1254 (10%), Method: PREINCUBATION
[2] = Test System: AMES SALMONELLA TYPHIMURIUM, Strain/Indicator: TA97, Metabolic Activation: NONE, Method: PREINCUBATION
[3] = Test System: AMES SALMONELLA TYPHIMURIUM, Strain/Indicator: TA97, Metabolic Activation: RAT, LIVER, S-9, AROCLOR 1254 (10%), Method: PREINCUBATION
[4] = Test System: AMES SALMONELLA TYPHIMURIUM, Strain/Indicator: TA98, Metabolic Activation: HAMSTER, LIVER, S-9, AROCLOR 1254 (10%), Method: PREINCUBATION
[5] = Test System: AMES SALMONELLA TYPHIMURIUM, Strain/Indicator: TA98, Metabolic Activation: NONE, Method: PREINCUBATION
[6] = Test System: AMES SALMONELLA TYPHIMURIUM, Strain/Indicator: TA98, Metabolic Activation: NONE, Method: STANDARD PLATE
[7] = Test System: AMES SALMONELLA TYPHIMURIUM, Strain/Indicator: TA98, Metabolic Activation: RAT, LIVER, S-9, AROCLOR 1254 (10%), Method: PREINCUBATION
[8] = Test System: AMES SALMONELLA TYPHIMURIUM, Strain/Indicator: TA98, Metabolic Activation: S-9, Method: STANDARD PLATE
[9] = Test System: AMES SALMONELLA TYPHIMURIUM, Strain/Indicator: TA100, Metabolic Activation: HAMSTER, LIVER, S-9, AROCLOR 1254 (10%), Method: PREINCUBATION
[10] = Test System: AMES SALMONELLA TYPHIMURIUM, Strain/Indicator: TA100, Metabolic Activation: NONE, Method: PREINCUBATION
[11] = Test System: AMES SALMONELLA TYPHIMURIUM, Strain/Indicator: TA100, Metabolic Activation: NONE, Method: STANDARD PLATE
[12] = Test System: AMES SALMONELLA TYPHIMURIUM, Strain/Indicator: TA100, Metabolic Activation: RAT, LIVER, S-9, AROCLOR 1254 (10%), Method: PREINCUBATION
[13] = Test System: AMES SALMONELLA TYPHIMURIUM, Strain/Indicator: TA100, Metabolic Activation: S-9, Method: STANDARD PLATE
[14] = Test System: AMES SALMONELLA TYPHIMURIUM, Strain/Indicator: TA1535, Metabolic Activation: HAMSTER, LIVER, S-9, AROCLOR 1254 (10%), Method: PREINCUBATION
[15] = Test System: AMES SALMONELLA TYPHIMURIUM, Strain/Indicator: TA1535, Metabolic Activation: NONE, Method: PREINCUBATION
[16] = Test System: AMES SALMONELLA TYPHIMURIUM, Strain/Indicator: TA1535, Metabolic Activation: RAT, LIVER, S-9, AROCLOR 1254 (10%), Method: PREINCUBATION

| Structure (SMILES) | mutagenic call [1] | mutagenic call [2] | mutagenic call [3] | mutagenic call [4] | mutagenic call [5] | mutagenic call [6] | mutagenic call [7] | mutagenic call [8] | mutagenic call [9] | mutagenic call [10] | mutagenic call [11] | mutagenic call [12] | mutagenic call [13] | mutagenic call [14] | mutagenic call [15] | mutagenic call [16] | also measured |
| --- | --- | --- | --- | --- | --- | --- | --- | --- | --- | --- | --- | --- | --- | --- | --- | --- | --- |
| Cc1ccc(C)o1 | inactive; negative | inactive; negative | inactive; negative | inactive; negative | inactive; negative | inactive; negative | inactive; negative | inactive; negative | inactive; negative | inactive; negative | inactive; negative | inactive; negative | inactive; negative | inactive; negative | inactive; negative | inactive; negative | mutagenic call (Test System: AMES SALMONELLA TYPHIMURIUM, Strain/Indicator: TA97, Metabolic Activation: HAMSTER, LIVER, S-9, AROCLOR 1254 (30%), Method: PREINCUBATION): inactive; negative; mutagenic call (Test System: AMES SALMONELLA TYPHIMURIUM, Strain/Indicator: TA97, Metabolic Activation: RAT, LIVER, S-9, AROCLOR 1254 (30%), Method: PREINCUBATION): inactive; negative; mutagenic call (Test System: AMES SALMONELLA TYPHIMURIUM, Strain/Indicator: TA98, Metabolic Activation: HAMSTER, LIVER, S-9, AROCLOR 1254 (30%), Method: PREINCUBATION): inactive; negative; mutagenic call (Test System: AMES SALMONELLA TYPHIMURIUM, Strain/Indicator: TA98, Metabolic Activation: RAT, LIVER, S-9, AROCLOR 1254 (30%), Method: PREINCUBATION): inactive; negative; mutagenic call (Test System: AMES SALMONELLA TYPHIMURIUM, Strain/Indicator: TA100, Metabolic Activation: HAMSTER, LIVER, S-9, AROCLOR 1254 (30%), Method: PREINCUBATION): inactive; negative; mutagenic call (Test System: AMES SALMONELLA TYPHIMURIUM, Strain/Indicator: TA100, Metabolic Activation: RAT, LIVER, S-9, AROCLOR 1254 (30%), Method: PREINCUBATION): inactive; negative; mutagenic call (Test System: AMES SALMONELLA TYPHIMURIUM, Strain/Indicator: TA1535, Metabolic Activation: HAMSTER, LIVER, S-9, AROCLOR 1254 (30%), Method: PREINCUBATION): inactive; negative; mutagenic call (Test System: AMES SALMONELLA TYPHIMURIUM, Strain/Indicator: TA1535, Metabolic Activation: RAT, LIVER, S-9, AROCLOR 1254 (30%), Method: PREINCUBATION): inactive; negative |
| COc1ccc(O)c(C(C)(C)C)c1 | – | inactive; negative | – | – | inactive; negative | – | – | – | – | inactive; negative | – | – | – | – | – | – | mutagenic call (Test System: AMES SALMONELLA TYPHIMURIUM, Strain/Indicator: TA97, Metabolic Activation: RAT, LIVER, S-9, PCB, Method: PREINCUBATION): inactive; negative; mutagenic call (Test System: AMES SALMONELLA TYPHIMURIUM, Strain/Indicator: TA98, Metabolic Activation: RAT, LIVER, S-9, PCB, Method: PREINCUBATION): inactive; negative; mutagenic call (Test System: AMES SALMONELLA TYPHIMURIUM, Strain/Indicator: TA100, Metabolic Activation: RAT, LIVER, S-9, PCB, Method: PREINCUBATION): inactive; negative; mutagenic call (Test System: AMES SALMONELLA TYPHIMURIUM, Strain/Indicator: TA102, Metabolic Activation: NONE, Method: PREINCUBATION): inactive; negative; mutagenic call (Test System: AMES SALMONELLA TYPHIMURIUM, Strain/Indicator: TA102, Metabolic Activation: RAT, LIVER, S-9, PCB, Method: PREINCUBATION): inactive; negative |
| CCOC(=O)C1(CCCCCCOCc2cccs2)CO1 (stereo not drawn) | – | – | – | – | – | active; positive | – | active; positive | – | – | inactive; negative | – | inactive; negative | – | – | – | mutagenic call (Test System: AMES SALMONELLA TYPHIMURIUM, Strain/Indicator: TA102, Metabolic Activation: NONE, Method: STANDARD PLATE): inactive; negative; mutagenic call (Test System: AMES SALMONELLA TYPHIMURIUM, Strain/Indicator: TA102, Metabolic Activation: S-9, Method: STANDARD PLATE): inactive; negative; mutagenic call (Test System: AMES SALMONELLA TYPHIMURIUM, Strain/Indicator: TA1535, Metabolic Activation: NONE, Method: STANDARD PLATE): inactive; negative; mutagenic call (Test System: AMES SALMONELLA TYPHIMURIUM, Strain/Indicator: TA1535, Metabolic Activation: S-9, Method: STANDARD PLATE): inactive; negative; mutagenic call (Test System: AMES SALMONELLA TYPHIMURIUM, Strain/Indicator: TA1537, Metabolic Activation: NONE, Method: STANDARD PLATE): inactive; negative; mutagenic call (Test System: AMES SALMONELLA TYPHIMURIUM, Strain/Indicator: TA1537, Metabolic Activation: S-9, Method: STANDARD PLATE): inactive; negative |
| Oc1cccc2ncccc12 | – | – | – | – | inactive; negative | – | – | – | – | inactive; negative | inactive; negative | – | – | – | – | – | mutagenic call (Test System: AMES SALMONELLA TYPHIMURIUM, Strain/Indicator: TA98, Metabolic Activation: RAT, LIVER, S-9, Method: PREINCUBATION): active; positive; mutagenic call (Test System: AMES SALMONELLA TYPHIMURIUM, Strain/Indicator: TA100, Metabolic Activation: RAT, LIVER, S-9, AROCLOR 1254 (10% OR 20%), Method: STANDARD PLATE): active; positive; mutagenic call (Test System: AMES SALMONELLA TYPHIMURIUM, Strain/Indicator: TA100, Metabolic Activation: RAT, LIVER, S-9, Method: PREINCUBATION): active; positive |
| [Br][Pt-2]([Br])([Br])([Br])([Br])[Br] | – | – | – | – | inactive; negative | – | – | – | – | inactive; negative | – | – | – | – | – | – | mutagenic call (Test System: AMES SALMONELLA TYPHIMURIUM, Strain/Indicator: TA98, Metabolic Activation: RAT, LIVER, S-9, AROCLOR 1254, Method: PREINCUBATION): inactive; negative; mutagenic call (Test System: AMES SALMONELLA TYPHIMURIUM, Strain/Indicator: TA100, Metabolic Activation: RAT, LIVER, S-9, AROCLOR 1254, Method: PREINCUBATION): inactive; negative |
| CN(C)c1ccc(N=NS(=O)(=O)O)cc1 | active; positive | active; positive | active; positive | active; positive | active; positive | active; positive | active; positive | – | active; positive | active; positive | – | active; positive | – | active; positive | inactive; negative | inactive; negative | mutagenic call (Test System: AMES SALMONELLA TYPHIMURIUM, Strain/Indicator: TA98, Metabolic Activation: S-9 MIX, Method: STANDARD PLATE): active; positive; mutagenic call (Test System: E. COLI, Strain/Indicator: WP2, Metabolic Activation: NONE, Method: STANDARD PLATE): active; positive; mutagenic call (Test System: E. COLI, Strain/Indicator: WP2 UVRA, Metabolic Activation: NONE, Method: STANDARD PLATE): active; positive |
